These results are taken from patent publication US8518958B2, “Pyrido [2,3-D] pyrimidines and their use as kinase inhibitors” (Forma Therapeutics, Inc., priority 2006, dated 2013).

The structures appear in SMILES notation.

As usually defined, the IC50 is the point on the concentration scale where inhibition reaches its midpoint.

Assay [1] addresses B-Raf delta1-415 (Homo sapiens, UniProt P15056). The assay can be described thus: B-Raf kinase inhibition (MAPH filter plate, 33P-ATP, MEK1 substrate). Conditions: read-out: Biochemical IC50 B-Raf. The essentials:
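IC50 values come from dilution series (top 10 μM) measured by scintillation counting of 33P-labelled MEK1 retained on H3PO4-washed filters. Reactions ran 1 h at room temperature in pH 7.0 Mops buffer with MgCl2, MnCl2 and DTT, using 12.5 μCi/ml [γ-33P]ATP and B-Raf delta1-415 titrated to 50% turnover.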

The test system of assay [2] is HT-29 tumor cells. Nature of the assay: Anti-proliferative activity, SRB assay. The class given is cell-based, human. Conditions: Homo sapiens, HT-29, 72 h, 72 hours exposure, read-out: CELLULAR IC50 HT-29. The essentials:
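IC50 derived from % inhibition relative to DMSO controls, measured by sulforhodamine B binding (OD570) after TCA fixation. Cells (3,000-15,000 per well) were seeded a day ahead, then treated with graded compound concentrations for 72 hours.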

B-Raf delta1-415, sequence (P15056 416-766): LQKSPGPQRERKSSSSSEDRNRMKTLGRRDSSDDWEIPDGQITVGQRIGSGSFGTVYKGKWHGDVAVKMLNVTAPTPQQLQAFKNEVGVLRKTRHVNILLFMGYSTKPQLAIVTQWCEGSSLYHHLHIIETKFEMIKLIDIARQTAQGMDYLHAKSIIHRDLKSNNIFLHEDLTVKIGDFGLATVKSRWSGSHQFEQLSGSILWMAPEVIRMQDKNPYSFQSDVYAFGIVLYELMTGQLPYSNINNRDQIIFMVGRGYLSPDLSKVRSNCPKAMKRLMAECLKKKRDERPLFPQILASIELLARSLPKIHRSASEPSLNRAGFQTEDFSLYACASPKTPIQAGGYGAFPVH

With `CCN1CCN(c2ccc(Nc3ncc4cc(-c5c(Cl)cccc5Cl)c(=O)n(OC)c4n3)cc2)CC1` [Compound 189, 6-(2,6-Dichlorophenyl)-2-(4-(4-ethylpiperazino)phenyl)-amino-8-methoxy-pyrido[2,3-d]pyrimidin-7-one], the IC50 in assay [1] was below 0.5 µM; in assay [2], below 1 µM.
Consider `COn1c(=O)c(-c2c(Cl)cccc2Cl)cc2cnc(Nc3ccccc3F)nc21` [Compound 190, 6-(2,6-Dichlorophenyl)-2-(2-fluorophenyl)amino-8-methoxy-pyrido[2,3-d]pyrimidin-7-one], for which the IC50 is above 1 µM in assay [1] and below 1 µM in assay [2].
For `COn1c(=O)c(-c2c(Cl)cccc2Cl)cc2cnc(Nc3ccc(Br)cc3)nc21` [Compound 191, 2-(4-Bromophenyl)amino-6-(2,6-dichlorophenyl)-8-methoxy-pyrido[2,3-d]pyrimidin-7-one], the IC50 is above 1 µM in assay [1] and below 10 µM in assay [2].
In the case of `COn1c(=O)c(-c2c(Cl)cccc2Cl)cc2cnc(Nc3ccc(C(C)=O)cc3)nc21` [Compound 192, 2-(4-Acetylphenyl)amino-6-(2,6-dichlorophenyl)-8-methoxy-pyrido[2,3-d]pyrimidin-7-one], the IC50 is below 0.5 µM in assay [1] and below 1 µM in assay [2].
For the molecule `COn1c(=O)c(-c2c(F)cccc2Cl)cc2cnc(Nc3cc(C(=O)N(C)CCO)n(C)c3)nc21` [Compound 193, 6-(2-Chloro-6-fluorophenyl)-2-(5-N-(2-hydroxyethyl)-N-methyl-aminocarbonyl-1-methyl-pyrrol-3-yl)-amino-8-methoxy-pyrido[2,3-d]pyrimidin-7-one], the IC50 in assay [1] was below 0.1 µM; in assay [2], below 1 µM.
For `COCCN(C)C(=O)c1cc(Nc2ncc3cc(-c4c(F)cccc4Cl)c(=O)n(OC)c3n2)cn1C` [Compound 194, 6-(2-Chloro-6-fluorophenyl)-2-(5-N-(2-methoxyethyl)-N-methyl-aminocarbonyl-1-methyl-pyrrol-3-yl)-amino-8-methoxy-pyrido[2,3-d]pyrimidin-7-one] the same measures were below 0.1 µM and below 1 µM.
Regarding `COCCOn1c(=O)c(-c2c(Cl)cccc2Cl)cc2cnc(Nc3ccc(N4CCNCC4)cc3)nc21` [Compound 195, 6-(2,6-Dichlorophenyl)-8-(2-methoxyethyl)oxy-2-(4-piperazinophenyl)-amino-pyrido[2,3-d]pyrimidin-7-one], the IC50 in assay [1] is below 0.5 µM; in assay [2], below 1 µM.
`COn1c(=O)c(-c2c(Cl)cccc2Cl)cc2cnc(Nc3ccc(CN4CCC(F)(F)C4)cc3)nc21` [Compound 196, 6-(2,6-Dichlorophenyl)-2-(4-(3,3-difluoropyrrolidinomethyl)phenyl)-amino-8-methoxy-pyrido[2,3.-d]pyrimidin-7-one]: the IC50 in assay [1] was below 0.5 µM; in assay [2], below 1 µM.
With `COn1c(=O)c(-c2c(F)cccc2Cl)cc2cnc(Nc3cc(C(=O)N4CCOCC4)n(C)c3)nc21` [Compound 197, 6-(2-Chloro-6-fluorophenyl)-8-methoxy-2-(5-morpholinocarbonyl-1-methyl-pyrrol-3-yl)-amino-pyrido[2,3-d]pyrimidin-7-one], the IC50 was below 0.5 µM in assay [1] and below 1 µM in assay [2].
For `COn1c(=O)c(-c2c(F)cccc2Cl)cc2cnc(Nc3ccc(N4CCNCC4)cc3)nc21` [Compound 198, 6-(2-Chloro-6-fluorophenyl)-8-methoxy-2-(4-piperazinophenyl)-amino-pyrido[2,3-d]pyrimidin-7-one] the same measures were below 0.1 µM and below 1 µM.
For the molecule `COn1c(=O)c(-c2c(F)cccc2Cl)cc2cnc(Nc3ccc(N4CCNCC4)c(Cl)c3)nc21` [Compound 199, 6-(2-Chloro-6-fluorophenyl)-2-(3-chloro-4-piperazinophenyl)-amino-8-methoxy-pyrido[2,3-d]pyrimidin-7-one], the IC50 is below 0.1 µM in assay [1] and below 1 µM in assay [2].
Consider `COn1c(=O)c(-c2c(Cl)cccc2Cl)cc2cnc(Nc3ccc(N4CCN(S(C)(=O)=O)CC4)cc3)nc21` [Compound 200, 6-(2,6-Dichlorophenyl)-8-methoxy-2-(4-(4-methylsulfonyl)piperazino-phenyl)-amino-pyrido[2,3-d]pyrimidin-7-one], for which the IC50 is below 0.5 µM in assay [1] and below 1 µM in assay [2].
The corresponding values for `COn1c(=O)c(-c2c(Cl)cccc2Cl)cc2cnc(Nc3ccc(CN4CCC4)cc3)nc21` [Compound 201, 2-(4-(1-azacyclobutyl)methylphenyl)-amino-6-(2,6-dichlorophenyl)-8-methoxy-pyrido[2,3-d]pyrimidin-7-one] are below 0.5 µM and below 1 µM.
With `O=c1c(-c2c(Cl)cccc2Cl)cc2cnc(Nc3ccc(N4CCNCC4)cc3)nc2n1OCC1CCOCC1` [Compound 202, 6-(2,6-Dichlorophenyl)-8-(tetrahydropyran-4-ylmethyl)oxy-2-(4-piperazinophenyl)-amino-pyrido[2,3-d]pyrimidin-7-one], the IC50 is below 0.5 µM in assay [1] and below 1 µM in assay [2].
The corresponding values for `COn1c(=O)c(-c2c(F)cccc2Cl)cc2cnc(Nc3ccc(N4CCN(C(C)C)CC4)cc3)nc21` [Compound 203, 6-(2-Chloro-6-fluorophenyl)-8-methoxy-2-(4-(4-(1-methylethyl)piperazino)phenyl)-amino-pyrido[2,3-d]pyrimidin-7-one] are below 0.1 µM and below 1 µM.
For `CCCN1CCN(c2ccc(Nc3ncc4cc(-c5c(Cl)cccc5Cl)c(=O)n(OC)c4n3)cc2)CC1` [Compound 204, 6-(2,6-Dichlorophenyl)-8-methoxy-2-(4-(4-propylpiperazino)phenyl)-amino-pyrido[2,3-d]pyrimidin-7-one] the same measures were below 0.1 µM and below 1 µM.
For the molecule `COCCOn1c(=O)c(-c2c(Cl)cccc2Cl)cc2cnc(Nc3ccc(N4CCN(C(C)C)CC4)cc3)nc21` [Compound 205, 6-(2,6-Dichlorophenyl)-8-(2-methoxyethyl)oxy-2-(4-(4-(1-methylethyl)piperazino)phenyl)-amino-pyrido[2,3-d]pyrimidin-7-one], the half-inhibitory concentration (IC50) was below 0.1 µM in assay [1] and below 1 µM in assay [2].
As for `CC(C)N1CCN(c2ccc(Nc3ncc4cc(-c5c(Cl)cccc5Cl)c(=O)n(OCC5CCOCC5)c4n3)cc2)CC1` [Compound 206, 6-(2,6-Dichlorophenyl)-8-(tetrahydropyran-4-ylmethyl)oxy-2-(4-(4-(1-methylethyl)piperazino)phenyl)-amino-pyrido[2,3-d]pyrimidin-7-one], the IC50 in assay [1] is below 0.5 µM; in assay [2], below 1 µM.
For `CCCN1CCN(c2ccc(Nc3ncc4cc(-c5c(Cl)cccc5Cl)c(=O)n(OCCOC)c4n3)cc2)CC1` [Compound 207, 2-(4-(4-propylpiperazino)phenyl)-amino-6-(2,6-dichlorophenyl)-8-(2-methoxyethyl)oxy-pyrido[2,3-d]pyrimidin-7-one], the values for the IC50 in assay [1] and in assay [2] were below 0.5 µM and below 1 µM, respectively.
For `COn1c(=O)c(-c2c(F)cccc2Cl)cc2cnc(Nc3cc(C(=O)N4CCNCC4)n(C)c3)nc21` [Compound 208, 6-(2-Chloro-6-fluorophenyl)-8-methoxy-2-(5-piperazinocarbonyl-1-methyl-pyrrol-3-yl)-amino-pyrido[2,3-d]pyrimidin-7-one] the same measures were below 0.1 µM and below 1 µM.
